Experimental data from patent US5017570A, “Dibenzoxazepine compounds useful in the treatment of cerebral vasospasm or its sequela” (Chugai Seiyaku Kabushiki Kaisha, priority 1986, dated 1991).
Structures can show the parent of a compound that is named as a salt.

Assays:
[1] = system: regional cerebral blood flow (r-CBF); assay: r-CBF by hydrogen clearance method in unanesthetized and unrestrained cats; format: in vivo, Siamese cats
Text: The present inventors therefore employed the hydrogen clearance method wherein unanesthetized and unrestrained cats, each having a platinum electrode embedded in the cerebral cortex at four points, i.e., post. sigmoid G., post. sylvian G., mid. ecto-sylvian G. and post. suprasylvian G., and in the deeper area of the brain at three points, i.e., hippocampus, amygdala and hypothalamus, were exposed to a predetermined amount of hydrogen gas in a chamber. Using this method, the effects of compound Nos. 1 and 2 of the present invention on the regional cerebral blood flow (r-CBF) were evaluated. At the same time, analyses of blood pressure, the pH of blood, the gaseous components of the blood, and blood sugar levels were conducted with catheters being embedded in the femoral artery and vein.
One month before the start of experiment, a platinum electrode was embedded in the cerebral cortex of Siamese cats (both female and male) at four points, i.e., post. sigmoid G., post sylvian G., mid. ecto-sylvian G. and post. suprasylvian G., and in the deeper area of the brain at three points, i.e., hippocampus, amygdala and hypothalamus, the cats being then exposed to a predetermined amount of hydrogen gas in a chamber in an unanesthetized and unrestrained state.
In order to evaluate the effects of compound Nos. 1 and 2 of the present invention on the regional cerebral blood flow (r-CBF), a predetermined amount of each test compound was administered either perorally (p.o.) in gelatin capsules or by intravenous injection (i.v.) In the latter case, 0.2 mg/kg or 1 mg/kg (body weight) of a selected compound of the present invention was dissolved in a quantity of physiological saline equivalent to 1 ml/kg (body weight) and the total amount of their solution was injected over a period of 10 minutes in a sustained manner through a cannula attached to a vein in the upper thigh; a control (vinpocetine) in an amount equivalent to 1 mg/kg or 5 mg/kg (body weight) was dissolved in a quantity of 10% ascorbic acid equivalent to […] (body weight) and the total amount of the solution was injected over a period of 10 minutes in a sustained manner through a cannula attached to a vein in the upper thigh.
In the r-CBF analysis, a clearance curve was obtained with a computer (Signal Processor 7T17, product of Nippon Electric Co., Ltd. and Sanei Co., Ltd.), transformed into semi-logarithmic values which were then processed by the initial slope method to calculate all the values of r-CBF. Only values having a coefficient of correlation of at least 0.9 for regression line were used as applicable data and the level of significance was determined by the paired-t test for absolute values, with the values before administration of a test compound being taken as a control. The level of significance for the control group was tested by time-series dispersion analysis.

[2] = Experiment for acute toxicity (oral LD50); settings: mouse, in vivo, 5-week old male CD-1 (ICR) mice
Experimental: Nos. 1, 2, 3 and 4 of the present invention were administered orally to 5-week old male CD-1 (ICR) mice and the LD50 values (g/kg) were determined by a routine method.

[3] = system: cyclic-GMP content in the thoracic aortae; assay: cyclic-GMP content in thoracic aorta rings by radioimmunoassay; format: cell-based, Sprague-Dawley male rats; settings: 1×10^-6, 10^-5 or 10^-4 M, 37° C., 30 minutes
Experimental: Sprague-Dawley male rats were killed by decapitation, and their thoracic aortae were rapidly removed and immersed in ice-cold Krebs-Henseleit Ringer solution. The blood vessel was cut into rings with a length of about 3 mm and the weight of each wet tissue of the rings was measured. The rings of blood vessels were incubated at 37° C. for 30 minutes in portions of Krebs-Henseleit Ringer solution containing compound No. 1 (1×10^-6, 10^-5 or 10^-4 M) and vinpocetine (10^-4 M) under an atmosphere of 95% O2 - 5% CO2. Trichloroacetic acid (6%) was then added to the solution to stop the reaction and the cyclic-GMP content was determined by radioimunoassay method (YAMASA c-GMP Assay Kit).

[4] = system: basilar artery; assay: Vasorelaxation of isolated basilar artery segments; format: cell-based, Beagles; settings: 1 × 10^-5 M; for vasorelaxating action: in words
Experimental: Beagles of either sex weighing about 20 kg were anesthetized with i.v. administration of sodium […] (30 mg/kg) and were sacrificed by rapid exsanguination. After the brain was removed, the basilar artery was dissected out under magnification and was sectional in at 2- to 3-mm intervals. […] The segment was initially stretched at a tension of 400 mg for 1 hour with a force-displacement transducer (SB-1T, Nihon Kohden, Tokyo, Japan) during which time the buffer solution was changed several times. […] The total volume of agents never exceeded 25 μl or 5% of the chamber volume and experiments were done in the dark.

[5] = Experiment for subacute toxicity (30 days oral); format: in vivo, male rats (F344/crj); settings: deaths/animals
Experimental: Compounds No. 1, IV, VI and VII were administered orally to male rats (F344/crj) at doses of […] body weight daily for 30 days and body weight gain were measured.

[6] = i.v. over 10 minutes, 0.2 mg/kg
[7] = minus: vasoconstriction, 0: no effect

## COc1ccc2c(c1)Oc1ccc(C(=O)O)cc1N=C2C [1 (Na salt), sodium salt of 3-methoxy-11-methyldibenzo[b,f][1,4]oxazepin-8-carboxylic acid]
[1]; [6]
  Retention time: < 4 h
  Percent increase of r-CBF, 30 min.: 9.5%
  Percent increase of r-CBF, 60 min.: 13.6%
[1]; i.v. over 10 minutes, 1 mg/kg
  Retention time: > 4 h
  Percent increase of r-CBF, 30 min.: 13.3%
  Percent increase of r-CBF, 60 min.: 14.7%

## CCC1=Nc2cc(C(=O)O)ccc2Oc2cc(OC)ccc21 [2 (Na salt), sodium salt of 3-methoxy-11-ethyldibenzo[b,f][1,4]oxazepin-8-carboxylic acid]
[1]; [6]
  Retention time: > 4 h
  Percent increase of r-CBF, 30 min.: 12.1%
  Percent increase of r-CBF, 60 min.: 21.0%
[1]; i.v. over 10 minutes, 1 mg/kg
  Retention time: > 4 h
  Percent increase of r-CBF, 30 min.: 8.1%
  Percent increase of r-CBF, 60 min.: 10.0%

## COc1ccc2c(c1)Oc1ccc(C(=O)O)cc1N=C2C [Compound No. 1, 3-methoxy-11-methyldibenzo[b,f][1,4]oxazepin-8-carboxylic acid]
[1]; p.o., 10 mg/kg
  Retention time: > 4 h
  Percent increase of r-CBF, 30 min.: 12.9%
  Percent increase of r-CBF, 60 min.: 14.4%
[1]; p.o., 20 mg/kg
  Retention time: > 4 h
  Percent increase of r-CBF, 30 min.: 11.8%
  Percent increase of r-CBF, 60 min.: 11.0%
[1]; p.o., 50 mg/kg
  Retention time: > 4 h
  Percent increase of r-CBF, 30 min.: 14.6%
  Percent increase of r-CBF, 60 min.: 10.0%
[2]
  LD50: 3000 to 3500 mg/kg
[3]
  cyclic-GMP content in the thoracic aortae: increased dose-dependently
[4]
  vasorelaxating action: show vasorelaxating action
[4]; No. 2 = 1.00, minus: vasoconstriction, 0: no effect
  Relative Potency (vasorelaxation): 49.02
[4]; [7]
  Vasorelaxation: 250.0 mg

## CCC1=Nc2cc(C(=O)O)ccc2Oc2cc(OC)ccc21 [Compound No. 2]
[1]; p.o., 10 mg/kg
  Retention time: < 2 h
  Percent increase of r-CBF, 30 min.: 0.99%
  Percent increase of r-CBF, 60 min.: 9.1%
[1]; p.o., 20 mg/kg
  Retention time: > 4 h
  Percent increase of r-CBF, 30 min.: 13.8%
  Percent increase of r-CBF, 60 min.: 19.6%
[1]; p.o., 50 mg/kg
  Retention time: > 4 h
  Percent increase of r-CBF, 30 min.: 28.9%
  Percent increase of r-CBF, 60 min.: 22.4%
[2]
  LD50: 4200 to 5000 mg/kg
[4]
  vasorelaxating action: show vasorelaxating action
[4]; [7]
  Vasorelaxation: 5.1 mg

## CCC1=Nc2cc(C(=O)O)ccc2Oc2cc(O)ccc21 [No. I, reference compound]
[4]; [7]
  Vasorelaxation: -20.5 mg

## CCOC(=O)c1ccc2c(c1)N=Cc1ccc(C)cc1O2 [No. II, reference compound]
[4]; [7]
  Vasorelaxation: 0 mg

## CCOC(=O)c1ccc2c(c1)N=C(c1ccccc1)c1ccc(OC)cc1O2 [No. III, reference compound]
[4]; [7]
  Vasorelaxation: 0 mg

## CCOC(=O)c1ccc2c(c1)N=C(CC)c1ccc(OC)cc1O2 [No. IV, reference compound]
[4]; [7]
  Vasorelaxation: 0 mg
[5]; 2000 mg/kg daily for 30 days
  death: 4/6

## CCC1Nc2cc(C(=O)O)ccc2Oc2cc(OC)ccc21 (centres unmarked) [No. V, reference compound]
[4]; [7]
  Vasorelaxation: 0 mg

## CCC1=Nc2cc(C(=O)O)ccc2Oc2cc(C)ccc21 [No. VII]
[5]; 1000 mg/kg daily for 30 days
  death: 5/6

## CCOC(=O)C1=C[C@]2(CC)CCCN3CCc4c(n1c1ccccc41)[C@@H]32 [Vinpocetine, vinpocetine, reference compound]
[1]; i.v. over 10 minutes, 1 mg/kg
  Percent increase of r-CBF, 30 min.: 1.0%
  Percent increase of r-CBF, 60 min.: < 2.3%
[1]; i.v. over 10 minutes, 5 mg/kg
  Retention time: < 1 h
  Percent increase of r-CBF, 30 min.: -0.9%
  Percent increase of r-CBF, 60 min.: 8.3%
[1]; p.o., 20 mg/kg
  Retention time: < 1 h
  Percent increase of r-CBF, 30 min.: 12.3%
  Percent increase of r-CBF, 60 min.: 5.2%
